Measurements taken from US20080107623A1, “Inhibitors of Hepatitis C Virus” (Bristol-Myers Squibb Company, priority 2006, published 2008).

How the values were obtained:
[1] = target: T1, HCV NS3/4A protease complex, H77 strain (Hepatitis C virus genotype 1a, UniProt P27958, C1454S/C1711G); experiment: FRET peptide assay to monitor HCV NS3/4A proteolytic activity (H77 strain); format: biochemical, HCV genotype 1a; settings: read-out: IC50 against NS3/4A H77 strain
T1 construct: recombinant HCV NS3/4A protease complex (amino acids 1027 to 1711) for these strains; made in house; host or cells: Escherichia coli BL21 (DE3), pET21b
T1 sequence (P27958 1027-1711 C1454S/C1711G, one chain of several): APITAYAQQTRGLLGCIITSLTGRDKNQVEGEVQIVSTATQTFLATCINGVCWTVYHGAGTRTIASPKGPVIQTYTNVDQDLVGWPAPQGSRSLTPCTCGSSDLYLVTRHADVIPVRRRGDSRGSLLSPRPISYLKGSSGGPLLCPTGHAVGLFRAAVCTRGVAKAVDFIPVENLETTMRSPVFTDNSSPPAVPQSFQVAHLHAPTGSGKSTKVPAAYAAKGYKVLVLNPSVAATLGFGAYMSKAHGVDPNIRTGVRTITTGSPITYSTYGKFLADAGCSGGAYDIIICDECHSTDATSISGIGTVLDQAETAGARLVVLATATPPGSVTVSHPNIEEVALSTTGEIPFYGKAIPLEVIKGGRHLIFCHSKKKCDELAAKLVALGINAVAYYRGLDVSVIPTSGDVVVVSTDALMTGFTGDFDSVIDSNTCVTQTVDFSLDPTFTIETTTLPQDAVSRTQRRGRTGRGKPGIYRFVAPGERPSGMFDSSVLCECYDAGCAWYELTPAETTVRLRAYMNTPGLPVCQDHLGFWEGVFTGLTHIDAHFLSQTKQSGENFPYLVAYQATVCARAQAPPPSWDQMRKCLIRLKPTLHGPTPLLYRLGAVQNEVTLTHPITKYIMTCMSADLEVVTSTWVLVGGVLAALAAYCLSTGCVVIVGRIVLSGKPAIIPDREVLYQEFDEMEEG
Text: (§1) HCV NS3 protease complexes, derived from the BMS strain, H77 strain or J4L6S strain, were generated, as described below. These purified recombinant proteins were generated for use in a homogeneous assay (see below) to provide an indication of how effective compounds of the present disclosure would be in inhibiting HCV NS3 proteolytic activity.
(§2) The H77 and J4L6S strains were used for production of recombinant NS3/4A protease complexes. DNA encoding the recombinant HCV NS3/4A protease complex (amino acids 1027 to 1711) for these strains were manipulated as described by P. Gallinari et al. (see Gallinari P, Paolini C, Brennan D, Nardi C, Steinkuhler C, De Francesco R. Biochemistry. 38(17):5620-32, (1999)). Briefly, a three-lysine solubilizing tail was added at the 3′-end of the NS4A coding region. The cysteine in the P1 position of the NS4A-NS4B cleavage site (amino acid 1711) was changed to a glycine to avoid the proteolytic cleavage of the lysine tag. Furthermore, a cysteine to serine mutation was introduced by PCR at amino acid position 1454 to prevent the autolytic cleavage in the NS3 helicase domain. […]

[2] = target: T2, HCV NS3/4A protease complex, J4L6S strain (Hepatitis C virus genotype 1b, UniProt O92972, C1454S/C1711G); experiment: FRET peptide assay to monitor HCV NS3/4A proteolytic activity (J4L6S strain); format: biochemical, HCV genotype 1b; settings: read-out: IC50 against NS3/4A J4L6S strain
T2 construct: recombinant HCV NS3/4A protease complex (amino acids 1027 to 1711) for these strains; made in house; host or cells: Escherichia coli BL21 (DE3), pET21b
T2 sequence (O92972 1027-1711 C1454S/C1711G, one chain of several): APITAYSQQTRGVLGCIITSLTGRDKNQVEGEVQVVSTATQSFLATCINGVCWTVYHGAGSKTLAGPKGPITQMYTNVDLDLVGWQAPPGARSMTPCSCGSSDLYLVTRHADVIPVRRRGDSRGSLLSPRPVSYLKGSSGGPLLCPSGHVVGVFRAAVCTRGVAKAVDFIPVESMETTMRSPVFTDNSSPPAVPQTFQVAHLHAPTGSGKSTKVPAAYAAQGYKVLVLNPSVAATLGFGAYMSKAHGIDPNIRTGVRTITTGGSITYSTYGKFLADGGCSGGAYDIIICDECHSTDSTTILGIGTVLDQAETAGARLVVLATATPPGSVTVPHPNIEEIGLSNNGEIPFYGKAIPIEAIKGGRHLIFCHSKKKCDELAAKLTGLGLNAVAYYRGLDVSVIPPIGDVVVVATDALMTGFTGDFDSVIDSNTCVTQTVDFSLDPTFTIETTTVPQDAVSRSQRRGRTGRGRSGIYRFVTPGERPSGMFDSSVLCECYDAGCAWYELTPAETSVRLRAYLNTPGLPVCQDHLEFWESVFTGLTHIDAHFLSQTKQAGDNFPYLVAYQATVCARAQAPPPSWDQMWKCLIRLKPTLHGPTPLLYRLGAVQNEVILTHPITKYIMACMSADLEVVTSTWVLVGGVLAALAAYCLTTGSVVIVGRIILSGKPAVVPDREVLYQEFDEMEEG
Text: as §1, §2

COc1c(O[C@@H]2C[C@H]3C(=O)N[C@]4(C(=O)NS(=O)(=O)C5CC5)C[C@H]4/C=C\CCCCC[C@H](NC(=O)OC(C)(C)C)C(=O)N3C2)ccc2c(Cl)nccc12 [Compound 3]
IC50 [1]: 0.6 nM
IC50 [2]: 0.47 nM
